Source: US8481553B2, “Antimetastatic compounds” (Brigham Young University, priority 2010, dated 2013)

Tested on: MDCK cells
Test: HGF-induced epithelial-mesenchymal transition / migration of MDCK cells on transwell filters (crystal violet densitometry)
Format: cell-based
Conditions: test compound 10 μM, then HGF, 24 hours, percentage value like the untreated controls (unstimulated cells = maximal effect, HGF treated cells without compound = nil effect); for inhibition at 10 µM: Canis lupus familiaris, MDCK
Experimental: MDCK cells were seeded at confluency into the wells of a transwell filter in DMEM with 10% fetal bovine serum. Cells were cultured for 24 hours. Test compounds, dissolved in DMSO, were added to each test well to a 10 μM final concentration, and then hepatocyte growth factor (HGF) was then added. The MDCK cells were cultured for 24 hours. Concurrently, controls treated with and without HGF and with no test compounds were also prepared.
After post-HGF addition culturing, transwell filters were prepared by repeated washing using ice cold PBS. The cells were then fixed with paraformaldehyde (3.7%) on ice for 15 minutes to the filters. After fixation, the transwell filters were washed repeatedly with PBS followed by staining with crystal violet for 15 minutes. The transwell filters were washed again with distilled water.
The upper surface of the transwell filters were swabbed using a cotton-tipped probe. The filters were photographed using a gel documentation system. Densitometry measurements were made on the test samples and compared with control samples.

C=CCc1ccccc1OCC(=O)N/N=C/c1ccc(C)cc1C [Compound 1]
inhibition at 10 µM: 97%

C=CCc1ccccc1OCC(=O)N/N=C/c1ccc(Cl)cc1 [Compound 2]
inhibition at 10 µM: 67.3%

C=CCc1ccccc1OCC(=O)N/N=C/c1cccc(Oc2ccccc2)c1 [Compound 3]
inhibition at 10 µM: 70.9%

CCOc1ccccc1OCC(=O)N/N=C/c1ccc(O)cc1O [Compound 4]
inhibition at 10 µM: 32.3%

N#Cc1ccccc1OCC(=O)N/N=C/c1ccccc1O [Compound 5]
inhibition at 10 µM: 41.1%

N#Cc1ccccc1OCC(=O)N/N=C/c1ccccc1 [Compound 6]
inhibition at 10 µM: 44.2%

N#Cc1ccccc1OCC(=O)N/N=C/c1ccc(Cl)cc1 [Compound 7]
inhibition at 10 µM: 86.8%

N#Cc1ccccc1OCC(=O)N/N=C/c1ccc(Cl)cc1Cl [Compound 8]
inhibition at 10 µM: 55.1%

C=CCOc1ccccc1/C=N/NC(=O)COc1ccccc1CC=C [Compound 9]
inhibition at 10 µM: 49.5%

C=CCc1ccccc1OCC(=O)N/N=C/c1cccc(CC=C)c1O [Compound 10]
inhibition at 10 µM: 44.8%

N#Cc1ccccc1OCC(=O)N/N=C/c1ccc([N+](=O)[O-])cc1 [Compound 11]
inhibition at 10 µM: 83.7%

N#Cc1ccccc1OCC(=O)N/N=C/c1cccc(Br)c1 [Compound 12]
inhibition at 10 µM: 67.7%

N#Cc1ccccc1OCC(=O)N/N=C/c1c(Cl)cccc1Cl [Compound 13]
inhibition at 10 µM: 86%

CCc1ccccc1OCC(=O)N/N=C/c1ccc(Br)cc1 [Compound 14]
inhibition at 10 µM: 100%

CCOc1ccccc1OCC(=O)N/N=C/c1ccc(O)c(O)c1 [Compound 15]
inhibition at 10 µM: 72.8%

Cc1cccc(OCC(=O)N/N=C/c2cccc(I)c2)c1 [Compound 16]
Assay Value: <5%

Cc1cc(C)c(OCC(=O)N/N=C/c2ccccc2)c(C)c1 [Compound 17]
Assay Value: <5%

COc1ccccc1/C=N/NC(=O)COc1c(C)cc(C)cc1C [Compound 18]
Assay Value: <5%

COc1ccc(/C=N/NC(=O)COc2ccccc2C)cc1 [Compound 19]
Assay Value: <5%

Cc1ccc(OCC(=O)N/N=C/c2ccccc2)cc1 [Compound 20]
Assay Value: <5%

Cc1cc(C)c(/C=N/NC(=O)COc2ccccc2)c(C)c1 [Compound 21]
Assay Value: <5%

Cc1ccc(OCC(=O)N/N=C/c2ccc(C(=O)O)cc2)c(C)c1 [Compound 22]
Assay Value: <5%

Cc1cccc(OCC(=O)N/N=C/c2ccc(O)cc2)c1C [Compound 23]
Assay Value: <5%

COc1cccc(/C=N/NC(=O)COc2cc(C)ccc2C(C)C)c1 [Compound 24]
Assay Value: <5%

Cc1ccc(C)c(OCC(=O)N/N=C/c2ccc(CC(=O)O)cc2)c1C [Compound 25]
Assay Value: <5%

Cc1ccccc1OCC(=O)N/N=C/c1ccc(F)cc1 [Compound 26]
Assay Value: <5%

O=C(COc1ccccc1Br)N/N=C/c1cccc(Br)c1 [Compound 28]
Assay Value: <5%

O=C(COc1ccc2ccccc2c1)N/N=C/c1ccccc1Br [Compound 30]
Assay Value: <5%

O=C(COc1ccc2ccccc2c1)N/N=C/c1ccccc1 [Compound 31]
Assay Value: <5%

COc1ccccc1/C=N/NC(=O)COc1ccccc1OC [Compound 32]
Assay Value: <5%

COc1ccccc1OCC(=O)N/N=C/c1ccc(Cl)cc1 [Compound 33]
Assay Value: <5%

Cc1ccc(/C=N/NC(=O)COc2ccccc2Br)c(C)c1 [Compound 34]
Assay Value: <5%

O=C(COc1cccc(Br)c1)N/N=C/c1ccc(Cl)cc1 [Compound 35]
Assay Value: <5%

Cc1ccc(/C=N/NC(=O)COc2cccc(Br)c2)c(C)c1 [Compound 36]
Assay Value: <5%

O=C(COc1ccccc1Br)N/N=C/c1ccccc1Br [Compound 37]
Assay Value: <5%

O=C(COc1ccc(Br)cc1)N/N=C/c1ccc(Cl)cc1 [Compound 38]
Assay Value: <5%

O=c1[nH]c(CCc2ccccc2)nc2sc3c(c12)CCCC3 [Compound A-1]
inhibition at 10 µM: 96.9%

O=c1[nH]c(NCc2ccccc2)nc2sc3c(c12)CCCC3 [Compound A-2]
inhibition at 10 µM: 92.2%

O=C1c2cccc3cccc(c23)C(=O)N1CCc1nc2sc3c(c2c(=O)[nH]1)CCCC3 [Compound A-3]
inhibition at 10 µM: 73.4%

O=c1[nH]c(/C=C/c2ccccc2)nc2sc3c(c12)CCCC3 [Compound A-4]
inhibition at 10 µM: 90.8%

O=c1[nH]c(SCc2ccccc2)nc2sc3c(c12)CCc1ccccc1-3 [Compound A-5]
inhibition at 10 µM: 77.3%

Cc1noc(C)c1CSc1nc2sc3c(c2c(=O)n1-c1ccccc1)CCC3 [Compound A-6]
Assay Value: 55.1%

Cc1noc(C)c1CSc1nc2sc3c(c2c(=O)n1-c1ccccc1)CCCC3 [Compound A-7]
inhibition at 10 µM: 31.3%

Cc1nc(CSc2nc3[nH]ncc3c(=O)n2-c2ccccc2)cs1 [Compound A-8]
inhibition at 10 µM: 49.6%

O=C(CSc1nc2sc3c(c2c(=O)n1Cc1ccccc1)CCCC3)N1CCCC1 [Compound A-9]
inhibition at 10 µM: 50%

Cc1noc(C)c1CSc1nc2[nH]ncc2c(=O)n1-c1ccccc1 [Compound A-10]
inhibition at 10 µM: 63.1%

O=C(O)CCc1nc2sc3c(c2c(=O)[nH]1)CCCC3 [Compound A-12]
inhibition at 10 µM: 100%

O=c1[nH]c(SC/C=C/c2ccccc2)nc2sc3c(c12)CCCC3 [Compound A-13]
inhibition at 10 µM: 90.5%

C=C(C)CSc1nc2sc3c(c2c(=O)[nH]1)CCCC3 [Compound A-14]
inhibition at 10 µM: 100%

CCOC(=O)/C=C/CSc1nc2sc3c(c2c(=O)[nH]1)CCCC3 [Compound A-15]
inhibition at 10 µM: 71.3%

O=C1c2cccc3cccc(c23)C(=O)N1CCCc1nc2sc3c(c2c(=O)[nH]1)CCCC3 [Compound A-16]
inhibition at 10 µM: 70.1%

O=C(CSc1nc2sc3c(c2c(=O)n1-c1ccccc1)CCCC3)c1cccs1 [Compound A-17]
Assay Value: <5%

CC1CCc2c(sc3nc(Cc4ccccc4)[nH]c(=O)c23)C1 (centres unmarked) [Compound A-18]
Assay Value: <5%

CC1CCc2c(sc3nc(SCC(=O)N4CCOCC4)n(Cc4ccccc4)c(=O)c23)C1 (centres unmarked) [Compound A-20]
Assay Value: <5%

O=C(CSc1nc2sc3c(c2c(=O)n1Cc1ccccc1)CCCC3)N1CCCC1 [Compound A-21]
Assay Value: <5%

CC1CCCCN1C(=O)CSc1nc2sc3c(c2c(=O)n1-c1ccccc1)CCC3 (centres unmarked) [Compound A-22]
Assay Value: <5%

CC1CCN(C(=O)CSc2nc3sc4c(c3c(=O)[nH]2)CCCC4)CC1 [Compound A-25]
Assay Value: <5%

COc1cc(/C=C/c2ccc3cccc(OC)c3n2)cc(OC)c1OC [Compound B-1]
inhibition at 10 µM: 96.8%

CCOc1cc(/C=C/c2ccc3cccc(O)c3n2)ccc1OC [Compound B-2]
inhibition at 10 µM: > 5%

COc1cc(/C=C/c2ccc3cccc(O)c3n2)ccc1O [Compound B-3]
inhibition at 10 µM: > 5%

CCOc1ccc(/C=C/c2ccc3cccc(OC)c3n2)cc1OC [Compound B-5]
inhibition at 10 µM: > 5%

COc1ccc(/C=C/c2ccc3cccc(OC)c3n2)cc1Cl [Compound B-6]
inhibition at 10 µM: > 5%

COc1cc(/C=C/c2ccc3cccc(OC)c3n2)ccc1OC(C)=O [Compound B-7]
inhibition at 10 µM: > 5%

Oc1cccc2ccc(/C=C/c3ccc(Cl)c(Cl)c3)nc12 [Compound B-8]
inhibition at 10 µM: > 5%

COc1cc(/C=C/c2ccc3cccc(OC)c3n2)cc(Br)c1OC [Compound B-9]
inhibition at 10 µM: > 5%

CCOc1cccc(/C=C/c2ccc3cccc(OC)c3n2)c1 [Compound B-10]
inhibition at 10 µM: 76.1%

COc1cccc2ccc(/C=C/c3ccc(Br)cc3)nc12 [Compound B-11]
inhibition at 10 µM: 61.4%

COc1cc(OC)c(OC)cc1/C=C/c1ccc2cccc(OC)c2n1 [Compound B-12]
inhibition at 10 µM: 50.6%

CCOc1cc(/C=C/c2ccc3cccc(OC(=O)CC)c3n2)cc(Br)c1OC [Compound B-13]
inhibition at 10 µM: 62.2%

COc1c(OC(C)=O)ccc(/C=C/c2ccc3cccc(OC)c3n2)c1[N+](=O)[O-] [Compound B-14]
inhibition at 10 µM: 61.1%

CCOc1cccc(/C=C/c2ccc3cccc(OC)c3n2)c1OC(C)=O [Compound B-15]
inhibition at 10 µM: 53.1%

Oc1cccc2ccc(/C=C/c3ccc(OC4CCCC4)cc3)nc12 [Compound B-16]
Assay Value: 100%

COc1cc(/C=C/c2ccc3cccc(OCc4ccccc4Cl)c3n2)cc(OC)c1OC [Compound B-17]
inhibition at 10 µM: 100%

COc1cc(/C=C/c2ccc3cccc(OCc4ccccc4)c3n2)ccc1OC(C)=O [Compound B-18]
inhibition at 10 µM: 100%

Oc1cccc2ccc(/C=C/c3ccc(OCc4ccccc4)cc3)nc12 [Compound B-19]
Assay Value: 91.0%

COc1cccc2ccc(/C=C/c3cccc([N+](=O)[O-])c3)nc12 [Compound B-20]
inhibition at 10 µM: 92.4%

COc1cccc2ccc(/C=C/c3cc(I)ccc3OC(C)=O)nc12 [Compound B-21]
inhibition at 10 µM: 72.5%

COc1cc(Cl)cc(/C=C/c2ccc3cccc(OC)c3n2)c1OC(C)=O [Compound B-22]
inhibition at 10 µM: 98.1%

COc1cc(Br)cc(/C=C/c2ccc3cccc(OC)c3n2)c1OC [Compound B-23]
inhibition at 10 µM: 72.8%

CCC(=O)Oc1c(OC)cc(/C=C/c2ccc3cccc(OC(=O)CC)c3n2)cc1OC [Compound B-24]
inhibition at 10 µM: 98.1%

COc1cc(/C=C/c2ccc3cccc(OCc4ccc(Cl)cc4)c3n2)cc(OC)c1OC(C)=O [Compound B-25]
inhibition at 10 µM: 78.8%

CCc1ccc(/C=C/c2ccc3cccc(O)c3n2)cc1 [Compound B-26]
inhibition at 10 µM: 81.1%

Oc1c(Br)cc(Cl)cc1/C=C/c1ccc2cccc(O)c2n1 [Compound B-27]
inhibition at 10 µM: 100%
